The target in the experiment is T1, CCDC6-RET (Homo sapiens, UniProt P07949+Q16204+Q96SW2).
T1 construct: CCDC6 (natural N-terminal fusion partner, UniProt Q16204); endogenous in cells; host or cells: TPC-1 (parental, papillary thyroid carcinoma)
Description: Cellular RET degradation, AlphaLISA, TPC-1 cell line. The class given is cell-based. The following applies: for Dmax: TPC1, human, 24 h, read-out: Cell Density TPC-1/CCDC6-RET Ymax %; for DC50: read-out: Cell Density TPC-1/CCDC6-RET DC50, half-maximal degradation concentration, TPC-1 (CCDC6-RET), 24 hrs. In outline: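 TPC-1 papillary thyroid carcinoma cells (endogenous CCDC6-RET) in DMEM with 2% FBS, compound-treated 24 h at 37 °C. RET in lysates quantified by AlphaLISA luminescence, normalized to media-only and DMSO wells; DC50 and maximal degradation from 4-parameter logistic fit.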
On the technique in general: Alpha assays give light when donor and acceptor beads are brought close together.

T1 sequence (Q16204+P07949 fused): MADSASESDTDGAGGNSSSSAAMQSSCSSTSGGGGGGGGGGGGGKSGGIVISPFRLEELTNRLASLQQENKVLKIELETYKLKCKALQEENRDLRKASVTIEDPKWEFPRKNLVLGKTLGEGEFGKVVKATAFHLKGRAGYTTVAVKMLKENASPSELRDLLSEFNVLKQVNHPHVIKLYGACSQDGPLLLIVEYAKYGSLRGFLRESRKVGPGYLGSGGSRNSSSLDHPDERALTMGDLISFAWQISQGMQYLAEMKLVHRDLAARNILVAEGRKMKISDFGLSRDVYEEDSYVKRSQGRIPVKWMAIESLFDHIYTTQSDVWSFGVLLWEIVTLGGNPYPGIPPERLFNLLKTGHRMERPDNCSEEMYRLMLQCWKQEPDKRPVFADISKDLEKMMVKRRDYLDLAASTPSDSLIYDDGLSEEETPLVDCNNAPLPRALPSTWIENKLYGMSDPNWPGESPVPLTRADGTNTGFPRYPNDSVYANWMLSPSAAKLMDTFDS
T1 sequence (Q96SW2 whole entry, the tested form may be a part): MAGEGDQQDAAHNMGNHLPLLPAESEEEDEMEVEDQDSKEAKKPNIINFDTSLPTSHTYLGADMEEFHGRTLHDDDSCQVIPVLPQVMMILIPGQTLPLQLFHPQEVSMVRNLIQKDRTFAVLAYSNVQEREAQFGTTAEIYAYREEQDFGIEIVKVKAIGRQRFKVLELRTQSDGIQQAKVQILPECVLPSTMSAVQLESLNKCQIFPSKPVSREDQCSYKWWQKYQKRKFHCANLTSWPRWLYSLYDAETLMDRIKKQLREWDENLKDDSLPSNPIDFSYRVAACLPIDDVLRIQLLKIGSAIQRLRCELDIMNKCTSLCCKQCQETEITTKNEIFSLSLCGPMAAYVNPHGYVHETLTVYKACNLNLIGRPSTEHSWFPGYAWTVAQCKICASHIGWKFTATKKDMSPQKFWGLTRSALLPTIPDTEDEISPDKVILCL
T1 sequence (Q16531 whole entry partner, the tested form may be a part): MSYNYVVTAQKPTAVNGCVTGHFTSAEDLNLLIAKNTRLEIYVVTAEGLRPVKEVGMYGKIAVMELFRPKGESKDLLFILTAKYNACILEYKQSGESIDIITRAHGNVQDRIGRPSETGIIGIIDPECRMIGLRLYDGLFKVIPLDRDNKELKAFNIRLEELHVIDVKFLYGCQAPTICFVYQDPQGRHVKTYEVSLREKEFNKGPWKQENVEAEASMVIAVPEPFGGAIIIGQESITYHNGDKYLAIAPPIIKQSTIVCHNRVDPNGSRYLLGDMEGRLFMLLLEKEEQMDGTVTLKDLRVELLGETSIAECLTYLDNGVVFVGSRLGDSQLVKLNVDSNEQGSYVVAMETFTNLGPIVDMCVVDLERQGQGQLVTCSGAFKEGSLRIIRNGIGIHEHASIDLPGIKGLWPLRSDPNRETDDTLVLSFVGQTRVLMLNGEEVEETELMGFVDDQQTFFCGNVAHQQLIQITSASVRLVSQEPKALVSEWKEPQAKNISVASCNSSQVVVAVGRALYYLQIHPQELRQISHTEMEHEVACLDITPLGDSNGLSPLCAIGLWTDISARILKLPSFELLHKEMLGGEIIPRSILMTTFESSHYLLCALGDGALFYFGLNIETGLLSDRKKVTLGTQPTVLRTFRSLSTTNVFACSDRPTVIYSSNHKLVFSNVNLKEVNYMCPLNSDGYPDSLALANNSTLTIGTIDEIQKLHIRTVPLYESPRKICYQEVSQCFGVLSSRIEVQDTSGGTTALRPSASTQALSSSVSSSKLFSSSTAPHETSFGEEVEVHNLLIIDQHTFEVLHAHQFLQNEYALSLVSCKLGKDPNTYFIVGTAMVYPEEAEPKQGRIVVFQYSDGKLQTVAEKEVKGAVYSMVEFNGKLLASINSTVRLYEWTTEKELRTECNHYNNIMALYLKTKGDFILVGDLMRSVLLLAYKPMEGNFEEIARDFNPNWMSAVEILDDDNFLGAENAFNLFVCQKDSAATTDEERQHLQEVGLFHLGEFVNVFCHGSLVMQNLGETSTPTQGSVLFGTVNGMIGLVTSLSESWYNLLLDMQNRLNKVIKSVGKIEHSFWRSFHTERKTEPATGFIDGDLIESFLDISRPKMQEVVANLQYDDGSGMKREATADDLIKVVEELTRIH

Take `CCOc1cc(-c2ccc(N3CCC(CN4CCC5(CC4)CCN(C(=O)COc4ccc6c(c4)CN(C4CCC(=O)NC4=O)C6=O)CC5)(NC(=O)c4cc(F)ccc4F)CC3)nc2)c2c(C#N)cnn2c1` (stereo not drawn) [Example 99, N-[1-(5-{3-cyano-6-ethoxypyrazolo[1,5-a]pyridin-4-yl}pyridin-2-yl)-4-{[9-(2-{[2-(2,6-dioxopiperidin-3-yl)-1-oxo-2,3-dihydro-1H-isoindol-5-yl]oxy}acetyl)-3,9-diazaspiro[5.5]undecan-3-yl]methyl}piperidin-4-yl]-2,5-difluorobenzamide]: the Dmax is 60 to 90% and the DC50 is under 2 nM.

In the case of `CCOc1cc(-c2ccc(N3CCC(COCc4cn(CCCCCCN5CCN(c6ccc7c(c6)CN(C6CCC(=O)NC6=O)C7=O)CC5)nn4)(NC(=O)c4cc(F)ccc4F)CC3)nc2)c2c(C#N)cnn2c1` (stereo not drawn) [Example 47, N-[1-[5-(3-cyano-6-ethoxy-pyrazolo[1,5-a]pyridin-4-yl)-2-pyridyl]-4-[[1-[6-[4-[2-(2,6-dioxo-3-piperidyl)-1-oxo-isoindolin-5-yl]piperazin-1-yl]hexyl]triazol-4-yl]methoxymethyl]-4-piperidyl]-2,5-difluoro-benzamide], the Dmax is over 90% and the DC50 was 2 to 10 nM.

As for `CCOc1cc(-c2ccc(N3CCC(CN4CCN(C5CN(C(=O)c6ccc7c(N8CCC(=O)NC8=O)nn(C)c7c6)C5)CC4)(NC(=O)c4cc(F)ccc4F)CC3)nc2)c2c(C#N)cnn2c1` [Example 64, N-[1-(5-{3-cyano-6-ethoxypyrazolo[1,5-a]pyridin-4-yl}pyridin-2-yl)-4-[(4-{1-[3-(2,4-dioxo-1,3-diazinan-1-yl)-1-methyl-1H-indazole-6-carbonyl]azetidin-3-yl}piperazin-1-yl)methyl]piperidin-4-yl]-2,5-difluorobenzamide], the Dmax is over 90% and the DC50 was under 2 nM.

In the case of `CCOc1cc(-c2ccc(N3CCC(CN4CCN(C(=O)CCCCCCN5CCN(c6ccc7c(c6)CN(C6CCC(=O)NC6=O)C7=O)CC5)CC4)(NC(=O)c4ncccc4F)CC3)nc2)c2c(C#N)cnn2c1` (stereo not drawn) [Example 2, N-(1-(5-(3-cyano-6-ethoxypyrazolo[1,5-a]pyridin-4-yl)pyridin-2-yl)-4-((4-(7-(4-(2-(2,6-dioxopiperidin-3-yl)-1-oxoisoindolin-5-yl)piperazin-1-yl)heptanoyl)piperazin-1-yl)methyl)piperidin-4-yl)-3-fluoropicolinamide], the Dmax lay within 60 to 90% and the DC50 was in the range of 2 to 10 nM.

On to `CCOc1cc(-c2ccc(N3CCC(CN4CCN(C5CN(C(=O)Cc6ccc7c(c6)CN(C6CCC(=O)NC6=O)C7=O)C5)CC4)(NC(=O)c4cc(F)ccc4F)CC3)nc2)c2c(C#N)cnn2c1` (stereo not drawn) [Example 62, N-[1-(5-{3-cyano-6-ethoxypyrazolo[1,5-a]pyridin-4-yl}pyridin-2-yl)-4-{[4-(1-{2-[2-(2,6-dioxopiperidin-3-yl)-1-oxo-2,3-dihydro-1H-isoindol-5-yl]acetyl}azetidin-3-yl)piperazin-1-yl]methyl}piperidin-4-yl]-2,5-difluorobenzamide], for which the Dmax was 60 to 90% and the DC50 lay in the range of 2 to 10 nM.

As for `CCOc1cc(-c2ccc(N3CCC(CN4CCN(C(=O)CCCCCCN5CCN(c6ccc7c(N8CCC(=O)NC8=O)nn(C)c7c6)CC5)CC4)(NC(=O)c4cc(F)ccc4F)CC3)nc2)c2c(C#N)cnn2c1` [Example 41, N-(1-(5-(3-cyano-6-ethoxypyrazolo[1,5-a]pyridin-4-yl)pyridin-2-yl)-4-((4-(7-(4-(3-(2,4-dioxotetrahydropyrimidin-1(2H)-yl)-1-methyl-1H-indazol-6-yl)piperazin-1-yl)heptanoyl)piperazin-1-yl)methyl)piperidin-4-yl)-2,5-difluorobenzamide], the Dmax is over 90% and the DC50 is under 2 nM.

On to `CCOc1cc(-c2ccc(N3CCC(CN4CCN(CC5CCN(C(=O)Cc6cccc7c6CN(C6CCC(=O)NC6=O)C7=O)CC5)CC4)(NC(=O)c4cc(F)ccc4F)CC3)nc2)c2c(C#N)cnn2c1` (stereo not drawn) [Example 111, N-[1-(5-{3-cyano-6-ethoxypyrazolo[1,5-a]pyridin-4-yl}pyridin-2-yl)-4-({4-[(1-{2-[2-(2,6-dioxopiperidin-3-yl)-1-oxo-2,3-dihydro-1H-isoindol-4-yl]acetyl}piperidin-4-yl)methyl]piperazin-1-yl}methyl)piperidin-4-yl]-2,5-difluorobenzamide], for which the Dmax was 60 to 90% and the DC50 lay within 2 to 10 nM.

As to `CCOc1cc(-c2ccc(N3CCC(NC(=O)c4cc(F)ccc4F)(C(=O)NCCCCCCCCNc4ccc5c(N6CCC(=O)NC6=O)nn(C)c5c4)CC3)nc2)c2c(C#N)cnn2c1` [Example 152, 1-(5-{3-cyano-6-ethoxypyrazolo[1,5-a]pyridin-4-yl}pyridin-2-yl)-4-(2,5-difluorobenzamido)-N-(8-{[3-(2,4-dioxo-1,3-diazinan-1-yl)-1-methyl-1H-indazol-6-yl]amino}octyl)piperidine-4-carboxamide], the Dmax lay in the range of 60 to 90% and the DC50 fell in the range of 2 to 10 nM.

As for `CCOc1cc(-c2ccc(N3CCC(CN4CCN(C(=O)CCN5CC(Oc6ccc7c(c6)CN(C6CCC(=O)NC6=O)C7=O)C5)CC4)(NC(=O)c4cc(F)ccc4F)CC3)nc2)c2c(C#N)cnn2c1` (stereo not drawn) [Example 120, N-[1-(5-{3-cyano-6-ethoxypyrazolo[1,5-a]pyridin-4-yl}pyridin-2-yl)-4-({4-[3-(3-{[2-(2,6-dioxopiperidin-3-yl)-1-oxo-2,3-dihydro-1H-isoindol-5-yl]oxy}azetidin-1-yl)propanoyl]piperazin-1-yl}methyl)piperidin-4-yl]-2,5-difluorobenzamide], the Dmax was over 90% and the DC50 was under 2 nM.

Consider `CCOc1cc(-c2ccc(N3CCC(CN4CCN(C(=O)CCCCCCN5CCC(c6ccc7c(c6)C(=O)N(C6CCC(=O)NC6=O)C7)CC5)CC4)(NC(=O)c4cc(F)ccc4F)CC3)nc2)c2c(C#N)cnn2c1` (stereo not drawn) [Example 19, N-[1-(5-{3-cyano-6-ethoxypyrazolo[1,5-a]pyridin-4-yl}pyridin-2-yl)-4-{[4-(7-{4-[2-(2,6-dioxopiperidin-3-yl)-3-oxo-2,3-dihydro-1H-isoindol-5-yl]piperidin-1-yl}heptanoyl)piperazin-1-yl]methyl}piperidin-4-yl]-2,5-difluorobenzamide], for which the Dmax is over 90% and the DC50 fell in the range of 2 to 10 nM.

Turning to `CCOc1cc(-c2ccc(N3CCC(CN4CCN(CC5CCN(C(=O)COc6ccc7c(c6)CN(C6CCC(=O)NC6=O)C7=O)CC5)CC4)(NC(=O)c4cc(F)ccc4F)CC3)nc2)c2c(C#N)cnn2c1` (stereo not drawn) [Example 114, N-[1-(5-{3-cyano-6-ethoxypyrazolo[1,5-a]pyridin-4-yl}pyridin-2-yl)-4-[(4-{[1-(2-{[2-(2,6-dioxopiperidin-3-yl)-1-oxo-2,3-dihydro-1H-isoindol-5-yl]oxy}acetyl)piperidin-4-yl]methyl}piperazin-1-yl)methyl]piperidin-4-yl]-2,5-difluorobenzamide], the Dmax was 60 to 90% and the DC50 was under 2 nM.

On to `CCOc1cc(-c2ccc(N3CCC(CN4CCN(C(=O)CCN5CCN(c6ccc7c(N8CCC(=O)NC8=O)nn(C)c7c6)CC5)CC4)(NC(=O)c4cc(F)ccc4F)CC3)nc2)c2c(C#N)cnn2c1` [Example 39, N-(1-(5-(3-cyano-6-ethoxypyrazolo[1,5-a]pyridin-4-yl)pyridin-2-yl)-4-((4-(3-(4-(3-(2,4-dioxotetrahydropyrimidin-1(2H)-yl)-1-methyl-1H-indazol-6-yl)piperazin-1-yl)propanoyl)piperazin-1-yl)methyl)piperidin-4-yl)-2,5-difluorobenzamide], for which the Dmax was 60 to 90% and the DC50 was under 2 nM.

Take `CCOc1cc(-c2ccc(N3CCC(CN(C)C(=O)CCCCCCN4CCN(c5ccc6c(c5)C(=O)N(C5CCC(=O)NC5=O)C6)CC4)(NC(=O)c4cc(F)ccc4F)CC3)nc2)c2c(C#N)cnn2c1` (stereo not drawn) [Example 143, N-[1-(5-{3-cyano-6-ethoxypyrazolo[1,5-a]pyridin-4-yl}pyridin-2-yl)-4-[(7-{4-[2-(2,6-dioxopiperidin-3-yl)-3-oxo-2,3-dihydro-1H-isoindol-5-yl]piperazin-1-yl}-N-methylheptanamido)methyl]piperidin-4-yl]-2,5-difluorobenzamide]: the Dmax is over 90% and the DC50 is 2 to 10 nM.

On to `CCOc1cc(-c2ccc(N3CCC(CN4CCN(CC5CCN(C(=O)Cc6ccc7c(c6)C(=O)N(C6CCC(=O)NC6=O)C7)CC5)CC4)(NC(=O)c4cc(F)ccc4F)CC3)nc2)c2c(C#N)cnn2c1` (stereo not drawn) [Example 113, N-[1-(5-{3-cyano-6-ethoxypyrazolo[1,5-a]pyridin-4-yl}pyridin-2-yl)-4-({4-[(1-{2-[2-(2,6-dioxopiperidin-3-yl)-3-oxo-2,3-dihydro-1H-isoindol-5-yl]acetyl}piperidin-4-yl)methyl]piperazin-1-yl}methyl)piperidin-4-yl]-2,5-difluorobenzamide], for which the Dmax is over 90% and the DC50 was under 2 nM.

For `CCOc1cc(-c2ccc(N3CCC(NC(=O)c4cc(F)ccc4F)(C(=O)NCCN4CCC(c5ccc6c(c5)C(=O)N(C5CCC(=O)NC5=O)C6)CC4)CC3)nc2)c2c(C#N)cnn2c1` (stereo not drawn) [Example 161, 1-(5-{3-cyano-6-ethoxypyrazolo[1,5-a]pyridin-4-yl}pyridin-2-yl)-4-(2,5-difluorobenzamido)-N-(2-{4-[2-(2,6-dioxopiperidin-3-yl)-3-oxo-2,3-dihydro-1H-isoindol-5-yl]piperidin-1-yl}ethyl)piperidine-4-carboxamide], the Dmax is 60 to 90% and the DC50 was under 2 nM.

The values are drawn from patent US20260356830A1, “COMPOUNDS FOR MODULATING RET PROTEIN” (Bristol-Myers Squibb Company, priority 2022, published 2026).
